Reference: patent US20040005702A1, “Insulin producing cell-line” (priority 2000, published 2004)
Where “and” joins values, the source holds several entries; their conditions need not be identical. Equal values may be shown once. Entries after “also recorded” stand apart in the source; their conditions may differ.

What was measured:
[1] = system: 1.1B4, 1.1E7, 1.4E7 and 1.2B4 cells; assay: Acute static incubation, insulin secretion, statements pooled over all four cell lines; type: cell-based, human; conditions: for insulin release from the novel cell lines: each of the novel cell lines, glucose concentration not stated; for insulin release at 11.1 mmol/l glucose: novel cells
Procedure: (§1) Acute static incubations at 37° C. were performed using monolayers of insulin-secreting cells. […] Approximately 2.5×10^5 cells were then seeded in each well of 24-well multiplates (Iwaki Glass, Japan). […] The cells were incubated at 37° C. for 40 minutes, after which the buffer was removed and replaced with 0.5 ml KRBB test buffer. […] After 60 min incubation at 37° C., a 450 μl aliquot of KRBB test buffer was removed from each well into 2 ml polypropylene tube (Lip Plastics, England) and centrifuged at 900 rpm for 5 minutes at 4° C. The supernatant was then collected from each tube and 200 μl aliquots were then stored at −20° C. for subsequent insulin determination by radioimmunoassay.
(§2) Human insulin standards were prepared over a range of 2-fold serial dilutions from 5.0 ng/ml to 0.009 ng/ml using Human insulin standard (Sigma Chemical, UK). […] This antiserum was specificaly selected for high affinity with human insulin standard.
(§3) After a further 24 hours incubation at 4° C., 1 ml of a 5% (w/v) charcoal coated with 1:10 dextran T-70 in sodium phosphate buffer (40 mmol/1, pH 7.4) was added to each tube. […] Counts bound to antibody (average total counts minus counts bound to charcoal) are inversely proportional to the concentration of insulin in the standard or unknown sample. The unknown concentration was determined by means of the standard curve, constructed from the known […] insulin standard using a spline curve fitting algorithim.

[2] = system: human islet-derived 1.1E7 cells; assay: Acute static incubation, insulin secretion by radioimmunoassay, 1.1E7 cells; type: cell-based; conditions: for threshold glucose concentration for stimulation of insulin release in the presence of the agent: IBMX or 2 mmol/l 5-thioglucose included
Procedure: as §1, §2, §3

[3] = system: human islet-derived 1.1B4 cells; assay: Acute static incubation, insulin secretion by radioimmunoassay, 1.1B4 cells; type: cell-based; conditions: for increase of the effect on raising glucose from 5.6 mmol/l to 11.1 mmol/l: 11.1 vs 5.6 mmol/l glucose; for increase of insulin secretion: at 5.6 mmol/l glucose
Procedure: as §1, §2, §3

[4] = system: human islet-derived 1.4E7 cells; assay: Acute static incubation, insulin secretion by radioimmunoassay, 1.4E7 cells; type: cell-based
Procedure: as §1, §2, §3

[5] = system: human islet-derived 1.2B4 cells; assay: Acute static incubation, insulin secretion by radioimmunoassay, 1.2B4 cells; type: cell-based
Procedure: as §1, §2, §3

[6] = system: 1.1B4 cells; assay: Glucose oxidation from D-[U-14C]glucose, 1.1B4 cells; type: cell-based, human; conditions: 2 mmol/l 5-thioglucose
Procedure: (§4) A modification of the method developed by Keen et al. (1963) was used to determine oxidative glucose metabolism to CO2. In principle, the method involves incubation of cells in specially designed glass cups suspended inside standard counting vials with an airtight rubber stopper. A disc of filter paper (Whatman No. 1) was placed on the base of the counting vial. For each sample, 2.0×10^5 cells were incubated in the presence of either 1.1, 5.6, 11.1, 16.7 mmol/l glucose and D-[U-^14C] glucose to give a final concentration of […] (40 μl total volume). Effect of 2 mmol/l 5-thioglucose were also tested in 1.1 and 16.7 mmol/l glucose Blanks were set up where the cells were omitted and replaced with KRBB to give a final concentration of either 1.1 or 16.7 mmol/l glucose. Standards consisted of ^14C-labelled glucose (0.5 μCi) added to the filter paper at the base of the counting vial. The glass vials were sealed with the rubber caps and placed at 37° C. for one hour. The reaction was stopped by the addition of 0.2M HCl ([…]) injected through the rubber cap directly into the centre well using a Hamilton syringe. Phenylethylamine (PEA) was added (100 μl) through the sealed lid onto the filter paper at the base of the vial. Care was taken to avoid contamination of the centre well with PEA. […] Vials were capped and ^14C-glucose labelled radioactivity determined by scintillation counter.

[7] = system: PANC-1 cells; assay: Glucose oxidation from D-[U-14C]glucose, PANC-1 cells; type: cell-based, human; conditions: 2 mmol/l 5-thioglucose, tested at 1.1 and 16.7 mmol/l glucose
Procedure: as §4

[8] = system: 1.1E7 cells; assay: Glucose oxidation from D-[U-14C]glucose, 1.1E7 cells; type: cell-based, human; conditions: 2 mmol/l 5-thioglucose
Procedure: as §4

[9] = system: Hup-T3 cells; assay: Glucose oxidation from D-[U-14C]glucose, Hup-T3 cells; type: cell-based, human; conditions: 2 mmol/l 5-thioglucose, tested at 1.1 and 16.7 mmol/l glucose
Procedure: as §4

[10] = system: 1.1E7 cells; assay: Glucose utilisation from [5-3H]glucose, 1.1E7 cells; type: cell-based, human; conditions: 2 mmol/l 5-thioglucose, tested at 1.1 and 16.7 mmol/l glucose
Procedure: (§5) Experiments were performed in specially designed glass cups suspended inside standard counting vials with an airtight stopper. For each sample, 2.0×10^5 cells were incubated in the presence of either 1.1, 5.6, 11.1 or 16.7 mmol/l glucose and D-[5 ^3H] glucose to give a final concentration of 0.25 μCi (40 μl total volume) Effects of 2 mmol/l 5-thioglucose were also tested in 1.1 and 16.7 mmol/l glucose. Blanks were set up where the cells were omitted and replaced with KRBB to give a final concentration of either 1.1 or 16.7 mmol/l glucose. Standards consisted of D-[5^−3H] glucose (0.5 μCi) added to the base of the counting vial. The glass vials were sealed with the rubber caps and placed at 37° C. for one hour. The reaction was stopped by the addition of 0.2M HCl (50 μl) injected through the rubber cap directly into the centre well using a Hamilton syringe. Sterile deionized water was added (500 μl) through the sealed lid into the base of the vial. Vials were then placed at 37° C. for a 15 hour. The rubber caps and centre wells were removed and 5 ml of liquid scintillation fluid (BDH) added to each vial on top of the filter paper. Vials were capped and ^3H-glucose labelled radioactivity determined by scintillation counter.

[11] = system: 1.2B4 cells; assay: Glucose utilisation from [5-3H]glucose, 1.2B4 cells; type: cell-based, human; conditions: 2 mmol/l 5-thioglucose, tested at 1.1 and 16.7 mmol/l glucose
Procedure: as §5

[12] = system: 1.2B4 cells; assay: Glucose oxidation from D-[U-14C]glucose, 1.2B4 cells; type: cell-based, human; conditions: 2 mmol/l 5-thioglucose, tested at 1.1 and 16.7 mmol/l glucose
Procedure: as §4

[13] = system: PANC-1 cells; assay: Glucose utilisation from [5-3H]glucose, PANC-1 cells; type: cell-based, human; conditions: 2 mmol/l 5-thioglucose, this concentration = 16.7 mmol/l glucose
Procedure: as §5

[14] = system: 1.1B4 cells; assay: Glucose utilisation from [5-3H]glucose, 1.1B4 cells; type: cell-based, human; conditions: 2 mmol/l 5-thioglucose
Procedure: as §5

[15] = system: 1.4E7 cells; assay: Glucose utilisation from [5-3H]glucose, 1.4E7 cells; type: cell-based, human; conditions: 2 mmol/l 5-thioglucose, tested at 1.1 and 16.7 mmol/l glucose
Procedure: as §5

[16] = system: Hup-T3 cells; assay: Glucose utilisation from [5-3H]glucose, Hup-T3 cells; type: cell-based, human; conditions: 2 mmol/l 5-thioglucose, tested at 1.1 and 16.7 mmol/l glucose
Procedure: as §5

[17] = system: 1.4E7 cells; assay: Glucose oxidation from D-[U-14C]glucose, 1.4E7 cells; type: cell-based, human; conditions: 2 mmol/l 5-thioglucose
Procedure: as §4

[18] = all four cell lines, 16.7 mmol/l glucose
[19] = 200 μmol/ IBMX, glucose 0 to 16.7 mmol/l
[20] = tested at 1.1 and 16.7 mmol/l glucose
[21] = 2 mmol/l 5-thioglucose, 0 to 11.1 mmol/l glucose

Compound: [Cl-].[K+] [KCl]
- secretory responsiveness at passage 40 ([1]; all four cell lines, passage 40 vs 17): maintain responsiveness
- insulin release from the novel cell lines [1]: provoked insulin release

Compound: COc1ccc(CCN(C)CCCC(C#N)(c2ccc(OC)c(OC)c2)C(C)C)cc1OC (stereo not shown) [verapamil]
- insulin output at 16.7 mmol/l glucose [1, 18]: similarly reduced

Compound: COc1ccc(Cl)cc1C(=O)NCCc1ccc(S(=O)(=O)NC(=O)NC2CCCCC2)cc1 [glibenclamide]
- insulin release from the novel cell lines [1]: provoked insulin release

Compound: N=C(N)NCCC[C@H](N)C(=O)O [arginine, L-arginine]
- insulin secretory response at 11.1 mmol/l glucose compared with 5.6 mmol/l [2]: significantly greater
- increase of the effect on raising glucose from 5.6 mmol/l to 11.1 mmol/l [3]: 17%
- insulin secretion at non-stimulatory glucose ([1]; each cell line, 5.6 mmol/l glucose): significantly stimulated
- insulin release at 11.1 mmol/l glucose [1]: significant increases in insulin release

Compound: O=CC(O)CO (stereo not shown) [glyceraldehyde]
- insulin release from the novel cell lines [1]: significantly stimulate

Compound: CC(C)C[C@H](N)C(=O)O [leucine, L-leucine]
- insulin secretion at 11.1 mmol/l glucose [4]: induced insulin secretion
- insulin secretory response at 11.1 mmol/l glucose compared with 5.6 mmol/l [2]: significantly greater
- insulin secretion at 11.1 mmol/l glucose [5]: induced insulin secretion
- increase of the effect on raising glucose from 5.6 mmol/l to 11.1 mmol/l [3]: 30%
- increase of insulin secretion [3]: Significant effects
- insulin release at 11.1 mmol/l glucose [1]: significant increases in insulin release

Compound: CCCCNC(=O)NS(=O)(=O)c1ccc(C)cc1 [tolbutamide]
- increase of the effect on raising glucose from 5.6 mmol/l to 11.1 mmol/l [3]: 20%
- insulin release from the novel cell lines [1]: provoked insulin release

Compound: O=C(O)CN(CCOCCOCCN(CC(=O)O)CC(=O)O)CC(=O)O [EGTA]
- insulin output at 16.7 mmol/l glucose [1, 18]: significantly inhibited

Compound: isobutylmethylxanthine [IBMX]
- increase of secretory response to glucose by IBMX [4, 19]: 20 to 100% and 20 to 60%
- stimulation of secretory response with IBMX [4, 19]: 1.3-2 fold
- insulin secretion with IBMX in the absence of glucose ([4]; absence of glucose): modestly enhanced
- increase of secretory response to glucose by IBMX [2, 19]: 20 to 100% and 20 to 60%
- stimulation of secretory response with IBMX [2, 19]: 1.3-2 fold
- threshold glucose concentration for stimulation of insulin release in the presence of the agent [2]: 5.6 mmol/L
- effect of IBMX on insulin released ([5]; 200 μmol/ IBMX): did not significantly affect; also recorded: insensitive
- increase of secretory response to glucose by IBMX [3, 19]: 20 to 100% and 20 to 60%
- stimulation of secretory response with IBMX [3, 19]: 1.3-2 fold
- insulin secretion with IBMX in the absence of glucose ([3]; absence of glucose): modestly enhanced

Compound: CC1=NS(=O)(=O)c2cc(Cl)ccc2N1 [Diazoxide, diazoxide]
- inhibition at 400 µM ([1]; Homo sapiens, all four cell lines, 16.7 mmol/l glucose, diazoxide 400 μmol/l, EGTA in Ca2+-free buffer, read-out: inhibition of insulin release): 20 to 50%
- insulin output at 16.7 mmol/l glucose [1, 18]: significantly reduced

Compound: CC(C)CC(=O)C(=O)O [KIC]
- insulin secretion at 11.1 mmol/l glucose [4]: induced insulin secretion
- insulin secretory response at 11.1 mmol/l glucose compared with 5.6 mmol/l [2]: significantly greater
- insulin secretion at 11.1 mmol/l glucose [5]: induced insulin secretion
- insulin release at 11.1 mmol/l glucose [1]: significant increases in insulin release

Compound: O=C[C@H](O)[C@@H](O)[C@H](O)[C@H](S)CO [5-thioglucose]
- ratio of glucose oxidation:glucose utilisation on addition of 5-thioglucose [6]: significant increase in ratio
- effect of 5-thioglucose on glucose oxidation [6, 20]: inhibit the oxidation of glucose at both 1.1 mmol/l and 16.7 mmol/l glucose; also recorded: only marginally inhibited
- effect of 5-thioglucose on glucose oxidation [7]: significant inhibition of oxidation at both 1.1 and 16.7 mmol/l
- ratio of glucose oxidation:glucose utilisation on addition of 5-thioglucose [8]: significant increase in ratio
- effect of 5-thioglucose on glucose oxidation [9]: able to inhibit oxidation at both 1.1 and 16.7 mmol/l glucose
- effect of 5-thioglucose on glucose utilisation [10]: only affected utilisation at 16.7 mmol/l
- effect of 5-thioglucose on glucose utilisation [11]: had no affect
- effect of 5-thioglucose on insulin output and glucose responsiveness ([4]; 2 mmol/l 5-thioglucose): least affected; also recorded: not affected
- lowering of insulin output by 5-thioglucose [2, 21]: 20-50% and 20 to 50%
- threshold glucose concentration for stimulation of insulin release in the presence of the agent [2]: 5.6 mmol/L
- glucose-stimulated insulin release in the presence of 5-thioglucose ([5]; 2 mmol/l 5-thioglucose): became apparent
- lowering of insulin output by 5-thioglucose [5, 21]: 20-50% and 20 to 50%
- lowering of insulin output by 5-thioglucose [3, 21]: 20-50% and 20 to 50%
- effect of 5-thioglucose on glucose oxidation [12]: inhibited oxidation at 16.7 mmol/l
- effect of 5-thioglucose on glucose utilisation [13]: inhibit utilisation only at this concentration
- effect of 5-thioglucose on glucose utilisation ([14]; 1.1 mmol/l glucose): did not affect
- effect of 5-thioglucose on glucose utilisation ([14]; 16.7 mmol/l glucose): reduce utilisation
- effect of 5-thioglucose on glucose utilisation [15]: unaffected
- effect of 5-thioglucose on glucose utilisation [16]: did not inhibit
- ratio of glucose oxidation:glucose utilisation on addition of 5-thioglucose [17]: significant increase in ratio
- effect of 5-thioglucose on glucose oxidation [17, 20]: clearly inhibiting oxidation at both 1.1 and 16.7
- effect of 5-thioglucose on responsiveness to increasing glucose concentrations ([1]; all four cell lines, 2 mmol/l 5-thioglucose): improved; also recorded: caused a shift

Compound: C[C@H](N)C(=O)O [alanine, L-alanine]
- insulin secretion at 11.1 mmol/l glucose [4]: induced insulin secretion
- insulin secretory response at 11.1 mmol/l glucose compared with 5.6 mmol/l [2]: significantly greater
- insulin secretion at 11.1 mmol/l glucose [5]: induced insulin secretion
- increase of insulin secretion [3]: Significant effects
- insulin release at 11.1 mmol/l glucose [1]: significant increases in insulin release
